Results taken from the supplement of paper PMC10883282.
± gives the standard deviation of the averaged measurements.

System: SK-LMS-1
Assay: relative viability vs DMSO control (72 h) (fraction); higher = more viable cells
How it was run: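 Relative viability was measured with ATPLite and expressed as percent growth, averaged across up to triplicate wells. Sarcoma cell lines had been seeded in 384-well plates to reach 80–90% confluence, dosed after 24 h, and incubated 72 h at 37 °C, 5% CO2. All data were rescaled on a scale where 1 is full and 0 is none.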

| SMILES | relative viability (0.00017 µM) | relative viability (0.00051 µM) | relative viability (0.00152 µM) | relative viability (0.00457 µM) | relative viability (0.01372 µM) | relative viability (0.04115 µM) | relative viability (0.1235 µM) | relative viability (0.3704 µM) | relative viability (1.111 µM) | relative viability (3.333 µM) | relative viability (10 µM) |
| --- | --- | --- | --- | --- | --- | --- | --- | --- | --- | --- | --- |
| CC[C@H](Nc1ncnc2[nH]cnc12)c1nc2cccc(F)c2c(=O)n1-c1ccccc1 [Idelalisib] | 1.02 ± 0.019 | 1.02 ± 0.046 | 1.02 ± 0.084 | 1.01 ± 0.028 | 0.991 ± 0.034 | 1.02 ± 0.041 | 0.972 ± 0.049 | 0.929 ± 0.035 | 0.838 ± 0.049 | 0.71 ± 0.03 | 0.618 ± 0.025 |
| Cc1cc(Nc2ncnc3ccc(NC4=NC(C)(C)CO4)cc23)ccc1Oc1ccn2ncnc2c1 [Tucatinib] | 1.1 ± 0.022 | 1.09 ± 0.06 | 1.08 ± 0.041 | 1.09 ± 0.058 | 1.08 ± 0.047 | 1.08 ± 0.034 | 1.08 ± 0.033 | 1.09 ± 0.055 | 1.09 ± 0.045 | 1.05 ± 0.025 | 0.7801 ± 0.0053 |
| N#CC[C@H](C1CCCC1)n1cc(-c2ncnc3[nH]ccc23)cn1 [Ruxolitinib] | 1.03 ± 0.012 | 1 ± 0.037 | 0.995 ± 0.036 | 1.03 ± 0.034 | 1.036 ± 0.0052 | 1.035 ± 0.0072 | 1.02 ± 0.021 | 1.03 ± 0.029 | 1.03 ± 0.039 | 0.986 ± 0.033 | 0.828 ± 0.02 |
| Cc1ccc(F)c(NC(=O)Nc2ccc(-c3cccc4[nH]nc(N)c34)cc2)c1 [Linifanib] | 0.97 ± 0.011 | 1 ± 0.02 | 1.02 ± 0.022 | 1.01 ± 0.038 | 1.03 ± 0.037 | 1.01 ± 0.041 | 1.02 ± 0.05 | 1.04 ± 0.059 | 1.099 ± 0.0016 | 1.05 ± 0.058 | 1.06 ± 0.075 |
| Cc1nc(NC(=O)N2CCC[C@H]2C(N)=O)sc1-c1ccnc(C(C)(C)C(F)(F)F)c1 [Alpelisib] | 1.02 ± 0.024 | 1.04 ± 0.048 | 1 ± 0.063 | 1.01 ± 0.022 | 0.967 ± 0.046 | 0.951 ± 0.048 | 0.889 ± 0.043 | 0.8312 ± 0.0082 | 0.749 ± 0.055 | 0.666 ± 0.025 | 0.54 ± 0.044 |
| CC(C)(C)c1cc(NC(=O)Nc2ccc(-c3cn4c(n3)sc3cc(OCCN5CCOCC5)ccc34)cc2)no1 [Quizartinib] | 1.05 ± 0.018 | 1.07 ± 0.038 | 1.07 ± 0.029 | 1.03 ± 0.042 | 1.06 ± 0.043 | 1.05 ± 0.04 | 1.06 ± 0.018 | 0.979 ± 0.04 | 0.932 ± 0.019 | 0.832 ± 0.045 | 0.528 ± 0.029 |
| CNC(=O)c1ccc(-c2cnc3ncc(Cc4ccc5ncccc5c4)n3n2)cc1F [Capmatinib] | 1.02 ± 0.019 | 1 ± 0.07 | 0.987 ± 0.015 | 0.882 ± 0.031 | 0.617 ± 0.047 | 0.536 ± 0.0061 | 0.532 ± 0.0098 | 0.53 ± 0.013 | 0.512 ± 0.012 | 0.496 ± 0.017 | 0.5154 ± 0.005 |
| CC(C)N1CCN(Cc2cnc(-c3cc(-c4cccc5[nH]ccc45)cc4[nH]ncc34)o2)CC1 [Nemiralisib] | 1.05 ± 0.047 | 1.02 ± 0.033 | 1.06 ± 0.038 | 1.04 ± 0.011 | 1.04 ± 0.047 | 1.05 ± 0.04 | 1.042 ± 0.0068 | 0.994 ± 0.033 | 0.928 ± 0.012 | 0.821 ± 0.029 | 0.658 ± 0.041 |
| C[C@@H](c1ccc2nccn2c1)n1nnc2ncc(-c3cnn(C)c3)nc21 [Volitinib] | 1.03 ± 0.013 | 0.979 ± 0.016 | 0.975 ± 0.027 | 0.958 ± 0.027 | 0.763 ± 0.019 | 0.636 ± 0.017 | 0.548 ± 0.016 | 0.554 ± 0.024 | 0.546 ± 0.019 | 0.537 ± 0.016 | 0.538 ± 0.0092 |
| COc1c(OCCCN2CCOCC2)ccc2c1N=C(NC(=O)c1cnc(N)nc1)N1CCN=C21 [Copanlisib] | 1.05 ± 0.059 | 0.995 ± 0.035 | 0.964 ± 0.032 | 0.814 ± 0.035 | 0.744 ± 0.042 | 0.629 ± 0.014 | 0.539 ± 0.018 | 0.454 ± 0.017 | 0.365 ± 0.02 | 0.296 ± 0.014 | 0.302 ± 0.011 |
| CCN1CCN(Cc2ccc(Nc3ncc(F)c(-c4cc(F)c5nc(C)n(C(C)C)c5c4)n3)nc2)CC1 [Abemaciclib] | 1.03 ± 0.012 | 1.05 ± 0.019 | 1.05 ± 0.057 | 1.02 ± 0.033 | 1.04 ± 0.024 | 1.01 ± 0.021 | 0.945 ± 0.037 | 0.9498 ± 0.0093 | 0.926 ± 0.043 | 0.88 ± 0.042 | 0.873 ± 0.02 |
| C[C@]1(O)C[C@@H](c2nc(-c3ccc4ccc(-c5ccccc5)nc4c3)c3c(N)nccn32)C1 [Linsitinib] | 1.04 ± 0.02 | 1.07 ± 0.022 | 1.05 ± 0.067 | 1.07 ± 0.025 | 1.04 ± 0.022 | 1.01 ± 0.025 | 1.01 ± 0.034 | 1.03 ± 0.019 | 1.01 ± 0.026 | 0.938 ± 0.011 | 0.71 ± 0.027 |
| Cc1ccc(NC(=O)c2ccc(CN3CCN(C)CC3)cc2)cc1Nc1nc(-c2cccnc2)cs1 [Masitinib] | 1.03 ± 0.013 | 1.05 ± 0.031 | 1.03 ± 0.022 | 1.02 ± 0.029 | 1.02 ± 0.029 | 1.04 ± 0.03 | 1.01 ± 0.018 | 1.008 ± 0.0068 | 0.953 ± 0.051 | 0.605 ± 0.0079 | 0.103 ± 0.0046 |
| CN1CCN(c2ccc3nc(-c4c(N)c5c(F)cccc5[nH]c4=O)[nH]c3c2)CC1 [Dovitinib] | 1.08 ± 0.053 | 1.09 ± 0.049 | 1.1 ± 0.037 | 1.14 ± 0.043 | 1.09 ± 0.063 | 1.12 ± 0.022 | 1.11 ± 0.015 | 1.07 ± 0.035 | 0.907 ± 0.017 | 0.654 ± 0.021 | 0.407 ± 0.0099 |
